Species: Rattus norvegicus
Assay: Open TG-GATES - Regimen: Daily Repeat
Type: toxicity, organism-based, Sprague-Dawley
Parameters: regimen Daily Repeat, gender Male, age 6 weeks
Settings: in vivo, po, 30 mg/kg, route gavage, dose level Middle; for APTT / Bas / Eos / Fbg / Hb / Ht / Lym / MCH / MCHC / MCV / Mono / Neu / PT / Plat / RBC / Ret / WBC: tissue Blood; for KIDNEY_L / KIDNEY_R / KIDNEY_TOTAL: tissue Kidney; for LIVER: tissue Liver; for A/G / ALP / ALT / AST / BUN / CRE / Ca / Cl / DBIL / GLC / IP / K / LDH / Na / PL / RALB / TBIL / TC / TG / TP / gamma-GTP: tissue Plasma

Molecule `CCC1(c2ccccc2)C(=O)NC(=O)NC1=O` [PHENOBARBITAL] has a TERMINAL_BW (72 h, time 3 day) of 222.1 g, an APTT (72 h, time 3 day) of 15.2 s and a Bas (72 h, time 3 day) of 0%. The Eos (72 h, time 3 day) was 0.6%, the Fbg (72 h, time 3 day) was 228.4 mg/dL and the Hb (72 h, time 3 day) was 13.5 g/dL. It also gave a Ht (72 h, time 3 day) of 40.1%, a Lym (72 h, time 3 day) of 81.2% and an MCH (72 h, time 3 day) of 21.8 pg. It also gave an MCHC (72 h, time 3 day) of 33.7%, an MCV (72 h, time 3 day) of 64.9 fL and a Mono (72 h, time 3 day) of 6.4%. The Neu (72 h, time 3 day) was 12%, the PT (72 h, time 3 day) was 11.2 s and the Plat (72 h, time 3 day) was 118.8 x10_4/uL. For the same molecule, the RBC (72 h, time 3 day) was 618 x10_4/ul, the Ret (72 h, time 3 day) was 7.6% and the WBC (72 h, time 3 day) was 95.1 x10_2/uL. It also gave a KIDNEY_L (72 h, time 3 day) of 0.9 g, a KIDNEY_R (72 h, time 3 day) of 0.9 g and a KIDNEY_TOTAL (72 h, time 3 day) of 1.9 g. The LIVER (72 h, time 3 day) was 12.5 g, the A/G (72 h, time 3 day) was 1.6 and the ALP (72 h, time 3 day) was 932 IU/L. It also gave an ALT (72 h, time 3 day) of 36.6 IU/L, an AST (72 h, time 3 day) of 63.2 IU/L and a BUN (72 h, time 3 day) of 17.2 mg/dL. It also gave a CRE (72 h, time 3 day) of 0.6 mg/dL, a Ca (72 h, time 3 day) of 11.2 mg/dL and a Cl (72 h, time 3 day) of 105.2 meq/L. It also gave a DBIL (72 h, time 3 day) of 0.026 mg/dL, a GLC (72 h, time 3 day) of 201 mg/dL and an IP (72 h, time 3 day) of 9.2 mg/dL. The K (72 h, time 3 day) was 4.5 meq/L, the LDH (72 h, time 3 day) was 128.8 IU/L and the Na (72 h, time 3 day) was 139.8 meq/L. For the same molecule, the PL (72 h, time 3 day) was 168.6 mg/dL, the RALB (72 h, time 3 day) was 3.6 g/dL and the TBIL (72 h, time 3 day) was 0.4 mg/dL. The TC (72 h, time 3 day) was 92 mg/dL, the TG (72 h, time 3 day) was 116.4 mg/dL and the TP (72 h, time 3 day) was 5.9 g/dL. It also gave a gamma-GTP (72 h, time 3 day) of 1.2 IU/L, a TERMINAL_BW ([…], time 7 day) of 261.6 g and a TERMINAL_BW ([…], time 14 day) of 299.2 g. The TERMINAL_BW ([…], time 28 day) was 388.6 g, the APTT ([…], time 7 day) was 15.6 s and the Bas ([…], time 7 day) was 0%. The Eos ([…], time 7 day) was 0.2%, the Fbg ([…], time 7 day) was 242.4 mg/dL and the Hb ([…], time 7 day) was 13.6 g/dL. It also gave a Ht ([…], time 7 day) of 40.8%, a Lym ([…], time 7 day) of 80.8% and an MCH ([…], time 7 day) of 21.6 pg. For the same molecule, the MCHC ([…], time 7 day) was 33.3%, the MCV ([…], time 7 day) was 64.9 fL and the Mono ([…], time 7 day) was 6.6%. The Neu ([…], time 7 day) was 12%, the PT ([…], time 7 day) was 11.6 s and the Plat ([…], time 7 day) was 120.5 x10_4/uL. For the same molecule, the RBC ([…], time 7 day) was 629.6 x10_4/ul, the Ret ([…], time 7 day) was 6.9% and the WBC ([…], time 7 day) was 121 x10_2/uL. It also gave an APTT ([…], time 14 day) of 17.6 s, a Bas ([…], time 14 day) of 0% and an Eos ([…], time 14 day) of 0%. For the same molecule, the Fbg ([…], time 14 day) was 229 mg/dL, the Hb ([…], time 14 day) was 14.6 g/dL and the Ht ([…], time 14 day) was 44.3%. For the same molecule, the Lym ([…], time 14 day) was 88%, the MCH ([…], time 14 day) was 20.3 pg and the MCHC ([…], time 14 day) was 33%. It also gave an MCV ([…], time 14 day) of 61.5 fL, a Mono ([…], time 14 day) of 3% and a Neu ([…], time 14 day) of 8.4%. It also gave a PT ([…], time 14 day) of 11.6 s, a Plat ([…], time 14 day) of 114.8 x10_4/uL and an RBC ([…], time 14 day) of 720.6 x10_4/ul. It also gave a Ret ([…], time 14 day) of 4.8%, a WBC ([…], time 14 day) of 130.2 x10_2/uL and an APTT ([…], time 28 day) of 18.2 s. For the same molecule, the Bas ([…], time 28 day) was 0%, the Eos ([…], time 28 day) was 1% and the Fbg ([…], time 28 day) was 215 mg/dL. For the same molecule, the Hb ([…], time 28 day) was 15.1 g/dL, the Ht ([…], time 28 day) was 45% and the Lym ([…], time 28 day) was 82.6%. The MCH ([…], time 28 day) was 19.5 pg, the MCHC ([…], time 28 day) was 33.6% and the MCV ([…], time 28 day) was 58 fL. It also gave a Mono ([…], time 28 day) of 5.2%, a Neu ([…], time 28 day) of 11.6% and a PT ([…], time 28 day) of 12.2 s. The Plat ([…], time 28 day) was 103 x10_4/uL, the RBC ([…], time 28 day) was 777.2 x10_4/ul and the Ret ([…], time 28 day) was 3%. For the same molecule, the WBC ([…], time 28 day) was 150 x10_2/uL, the KIDNEY_L ([…], time 7 day) was 1.1 g and the KIDNEY_R ([…], time 7 day) was 1.1 g. The KIDNEY_TOTAL ([…], time 7 day) was 2.2 g, the KIDNEY_L ([…], time 14 day) was 1.2 g and the KIDNEY_R ([…], time 14 day) was 1.2 g. It also gave a KIDNEY_TOTAL ([…], time 14 day) of 2.3 g, a KIDNEY_L ([…], time 28 day) of 1.3 g and a KIDNEY_R ([…], time 28 day) of 1.3 g. The KIDNEY_TOTAL ([…], time 28 day) was 2.7 g, the LIVER ([…], time 7 day) was 14.7 g and the LIVER ([…], time 14 day) was 15.9 g. For the same molecule, the LIVER ([…], time 28 day) was 18 g, the A/G ([…], time 7 day) was 1.5 and the ALP ([…], time 7 day) was 888 IU/L. For the same molecule, the ALT ([…], time 7 day) was 29.8 IU/L, the AST ([…], time 7 day) was 58.4 IU/L and the BUN ([…], time 7 day) was 18.8 mg/dL. For the same molecule, the CRE ([…], time 7 day) was 0.6 mg/dL, the Ca ([…], time 7 day) was 11 mg/dL and the Cl ([…], time 7 day) was 106.4 meq/L. For the same molecule, the DBIL ([…], time 7 day) was 0.042 mg/dL, the GLC ([…], time 7 day) was 204 mg/dL and the IP ([…], time 7 day) was 8.8 mg/dL. It also gave a K ([…], time 7 day) of 4.6 meq/L, an LDH ([…], time 7 day) of 95 IU/L and a Na ([…], time 7 day) of 140.8 meq/L. It also gave a PL ([…], time 7 day) of 157 mg/dL, an RALB ([…], time 7 day) of 3.6 g/dL and a TBIL ([…], time 7 day) of 0.4 mg/dL. For the same molecule, the TC ([…], time 7 day) was 85 mg/dL, the TG ([…], time 7 day) was 115.2 mg/dL and the TP ([…], time 7 day) was 6 g/dL. The gamma-GTP ([…], time 7 day) was 1.2 IU/L, the A/G ([…], time 14 day) was 1.4 and the ALP ([…], time 14 day) was 718.2 IU/L. It also gave an ALT ([…], time 14 day) of 27.6 IU/L, an AST ([…], time 14 day) of 61.8 IU/L and a BUN ([…], time 14 day) of 19.6 mg/dL. The CRE ([…], time 14 day) was 0.6 mg/dL, the Ca ([…], time 14 day) was 10.9 mg/dL and the Cl ([…], time 14 day) was 107 meq/L. It also gave a DBIL ([…], time 14 day) of 0.008 mg/dL, a GLC ([…], time 14 day) of 205.8 mg/dL and an IP ([…], time 14 day) of 8.5 mg/dL. It also gave a K ([…], time 14 day) of 4.2 meq/L, an LDH ([…], time 14 day) of 84.6 IU/L and a Na ([…], time 14 day) of 142 meq/L. It also gave a PL ([…], time 14 day) of 148.4 mg/dL, an RALB ([…], time 14 day) of 3.8 g/dL and a TBIL ([…], time 14 day) of 0.3 mg/dL. The TC ([…], time 14 day) was 79.2 mg/dL, the TG ([…], time 14 day) was 116.2 mg/dL and the TP ([…], time 14 day) was 6.5 g/dL. The gamma-GTP ([…], time 14 day) was 1 IU/L, the A/G ([…], time 28 day) was 1.5 and the ALP ([…], time 28 day) was 631.8 IU/L. It also gave an ALT ([…], time 28 day) of 32.2 IU/L, an AST ([…], time 28 day) of 58.6 IU/L and a BUN ([…], time 28 day) of 20.6 mg/dL. The CRE ([…], time 28 day) was 0.4 mg/dL, the Ca ([…], time 28 day) was 10.4 mg/dL and the Cl ([…], time 28 day) was 108 meq/L. It also gave a DBIL ([…], time 28 day) of 0.03 mg/dL, a GLC ([…], time 28 day) of 194.4 mg/dL and an IP ([…], time 28 day) of 7.5 mg/dL. For the same molecule, the K ([…], time 28 day) was 4.8 meq/L, the LDH ([…], time 28 day) was 70 IU/L and the Na ([…], time 28 day) was 139.6 meq/L. It also gave a PL ([…], time 28 day) of 143.4 mg/dL, an RALB ([…], time 28 day) of 3.8 g/dL and a TBIL ([…], time 28 day) of 0.4 mg/dL. It also gave a TC ([…], time 28 day) of 76.8 mg/dL, a TG ([…], time 28 day) of 88.8 mg/dL and a TP ([…], time 28 day) of 6.3 g/dL. For the same molecule, the gamma-GTP ([…], time 28 day) was 2.6 IU/L.

— ChEMBL document CHEMBL3885861, “Open TG-GATES”
